Measured values: patent US10757941B2, “Microbiocidal oxadiazole derivatives” (SYNGENTA PARTICIPATIONS AG, priority 2016, dated 2020)

Legend:
[1] = system: Glomerella lagenarium (Colletotrichum lagenarium); assay: Fungicidal activity against Glomerella lagenarium (Colletotrichum lagenarium) liquid culture / cucumber / preventative (anthracnose); format: cell-based; details: Colletotrichum orbiculare; 20 ppm in the applied formulation; liquid culture in PDB, 24° C.; inhibition of growth measured photometrically 3 to 4 days after application; compared to untreated; read-out: disease control
Method in brief: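 Conidia of C. lagenarium from cryogenic storage mixed into potato dextrose broth and added to test compound (DMSO solution) in microtiter plates; incubated at 24° C. Growth inhibition read photometrically 3 to 4 days after application, as percent activity versus untreated check.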

[2] = system: Puccinia recondita f. Sp. Tritici; assay: Fungicidal activity against Puccinia recondita f. sp. tritici / wheat / leaf disc curative (brown rust); format: in vivo; details: foliar, 200 ppm in the applied formulation, wheat leaf segments cv. Kanzler, curative (applied 1 day after inoculation), assessed 6 to 8 days after application, compared to untreated, read-out: disease control
Description: Leaf disks or leaf segments of various plant species are cut from plants grown in a greenhouse. The cut leaf disks or segments are placed in multiwell plates (24-well format) onto water agar. The leaf disks are sprayed with a test solution before (preventative) or after (curative) inoculation. Compounds to be tested are prepared as DMSO solutions (max. 10 mg/ml) which are diluted to the appropriate concentration with 0.025% Tween20 just before spraying. The inoculated leaf disks or segments are incubated under defined conditions (temperature, relative humidity, light, etc.) according to the respective test system. A single evaluation of disease level is carried out 3 to 14 days after inoculation, depending on the pathosystem. Percent disease control relative to the untreated check leaf disks or segments is then calculated. Example 2: Fungicidal Activity Against Puccinia recondita f. Sp. Tritici/Wheat/Leaf Disc Curative (Brown Rust) Wheat leaf segments cv. Kanzler are placed on agar in multiwell plates (24-well format). The leaf segments are then inoculated with a spore suspension of the fungus. Plates were stored in darkness at 19° C. and 75% relative humidity. The formulated test compound diluted in water was applied 1 day after inoculation. The leaf segments were incubated at 19° C. and 75% relative humidity under a light regime of 12 hours light/12 hours darkness in a climate cabinet and the activity of a compound was assessed as percent disease control compared to untreated when an appropriate level of disease damage appears in untreated check leaf segments (6 to 8 days after application). The following compounds at 200 ppm in the applied formulation give at least 80% disease control in this test when compared to untreated control leaf disks under the same conditions, which show extensive disease development.

Phakopsora pachyrhizi = assay: Fungicidal activity against Phakopsora pachyrhizi / soybean / leaf disc preventative (Asian soybean rust); format: in vivo; details: foliar, 200 ppm in the applied formulation, soybean leaf disks, preventative (inoculated one day after application), assessed 12 to 14 days after application, compared to untreated, read-out: disease control
Method in brief: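 Preventative test: soybean leaf discs on water agar sprayed with compound diluted in water, inoculated with spore suspension on lower surface one day later. Incubated 24-36 h dark at 20° C., 75% rh, then 12 h light/day; percent disease control versus untreated assessed 12 to 14 days after application.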

Uromyces viciae-fabael = assay: Fungicidal activity against Uromyces viciae-fabae / field bean / leaf disc preventative (faba-bean rust); format: in vivo; details: foliar, 288 h, 100 ppm in the applied formulation, field bean leaf discs, preventative (inoculated two hours after application), assessed 12 days after application, compared to untreated, read-out: disease control
Method in brief: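 Field bean leaf discs on water agar treated with compound in acetone plus spreader, then inoculated 2 h later by spraying U. viciae-fabae spores on the lower surface. Incubation at 22° C, 18 h day, 70% RH; percent disease control versus untreated scored 12 days after application.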

[3] = system: Puccinia recondita f. Sp. Tritici; assay: Fungicidal activity against Puccinia recondita f. sp. tritici / wheat / leaf disc preventative (brown rust); format: in vivo; details: foliar, 200 ppm in the applied formulation, wheat leaf segments cv. Kanzler, preventative (inoculated 1 day after application), assessed 7 to 9 days after application, compared to untreated, read-out: disease control
Method in brief: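 Wheat cv. Kanzler leaf segments on agar sprayed with formulated compound diluted in water; spore inoculation 1 day after application. Incubated at 19° C., 75% rh, 12 h light/12 h dark; percent disease control versus untreated scored 7 to 9 days after application.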

COC(CN(C)C(=O)c1ccc(-c2noc(C(F)(F)F)n2)c(F)c1)OC [Compound 1.36, N-(2,2-dimethoxyethyl)-3-fluoro-N-methyl-4-[5-(trifluoromethyl)-1,2,4-oxadiazol-3-yl]benzamide]
≥ 80%: inhibition of growth at 20 ppm [1] | pest or weed control at 200 ppm [2] | pest or weed control at 200 ppm (Phakopsora pachyrhizi) | pest or weed control at 100 ppm (Uromyces viciae-fabael) | pest or weed control at 200 ppm [3]

O=C(NC1CCC1)c1ccc(-c2noc(C(F)(F)F)n2)c(F)c1 [Compound 1.39, N-cyclobutyl-3-fluoro-4-[5-(trifluoromethyl)-1,2,4-oxadiazol-3-yl]benzamide]
≥ 80%: inhibition of growth at 20 ppm [1] | pest or weed control at 200 ppm [2] | pest or weed control at 200 ppm (Phakopsora pachyrhizi) | pest or weed control at 100 ppm (Uromyces viciae-fabael) | pest or weed control at 200 ppm [3]

CCOCC1(NC(=O)c2ccc(-c3noc(C(F)(F)F)n3)c(F)c2)CC1 [Compound 1.40, N-[1-(ethoxy-methyl)cyclopropyl]-3-fluoro-4-[5-(trifluoromethyl)-1,2,4-oxadiazol-3-yl]benzamide]
≥ 80%: inhibition of growth at 20 ppm [1] | pest or weed control at 200 ppm [2] | pest or weed control at 200 ppm (Phakopsora pachyrhizi) | pest or weed control at 100 ppm (Uromyces viciae-fabael) | pest or weed control at 200 ppm [3]
